Measurements published in patent US7576198B1, “Integrase inhibitors containing aromatic heterocycle derivatives” (Shionogi & Co., Ltd., priority 1999, dated 2009).

target: HIV-1 integrase (Human immunodeficiency virus type 1 group M subtype B, UniProt P04585); experiment: HIV-1 integrase inhibition assay (microtiter plate, substrate DNA/target DNA, OD 405 nm); assay type: biochemical; conditions: HIV-1 integrase; concentration of the compound at percent inhibition 50%; OD 405 nm
Protocol: The inhibitory effects of the compounds of the present invention for HIV-1 integrase have been determined by the assay described below.
(1) Preparation of DNA solutions.
Substrate DNA and target DNA, which sequences were indicated below, were synthesized by Amersham Pharmacia Biotech and dissolved in KTE buffer (composition: 100 mM KCl, 1 mM EDTA, 10 mM Tris-HCl (pH 7.6)) at concentration of 2 pmol/μl and 5 pmol/μl, respectively. The DNA solutions were annealed with each complement by slowly cooling after heating.
(Substrate DNA) • 5′-Biotin-ACCCTTTTAGTCAGTGTGGAAAATCTCTAGCAGT-3′ • 3-GAAAATCAGTCACACCTTTTAGAGATCGTCA-5′
5′-TGACCAAGGGCTAATTCACT-Dig-3′
3′-Dig-ACTGGTTCCCGATTAAGTGA-5′
(2) Calculations of the percent inhibitions (the IC50 values of test compounds)
Streptavidin, obtained from Vector Laboratories, was dissolved in 0.1 M carbonate buffer (composition: 90 mM Na2CO3, 10 mM NaHCO3) at concentration of 40 μg/ml. After coating each well of microtiter plates (obtained from NUNC) with 50 μl of the above solution at 4° C. over night, each well was washed twice with PBS (composition: […], 0.27 mM KCl, 0.43 mM Na2HPO4, 0.14 mM KH2PO4) and blocked with 300 μl of 1% skim milk in PBS for 30 min. Additionally, each well was washed twice with PBS and added 50 μl of substrate DNA solution (2 pmol/μl). The microtiter plates were kept at room temperature for 30 min. Then, each well was washed twice with PBS and once with H2O.
Subsequently, in the each well prepared above were added 45 μl of the reaction buffer prepared from 12 μl of the buffer (composition: 150 mM MOPS (pH 7.2), 75 mM MnCl2, 50 mM 2-mercaptoethanol, 25% glycerol, 500 μg/ml bovine serum albumin-fraction V), 1 μl of target DNA (5 pmol/μl), and 32 μl of the distilled water. Additionally, 6 μl of either a test compound in DMSO or DMSO for positive control (PC) was mixed with the above reaction buffer, then 9 μl of an integrase solution (30 pmol) was added and mixed well. In the well of negative control (NC) was added 9 μl of the integrase dilution buffer (composition: 20 mM MOPS (pH7.2), 400 mM potassium glutamate, 1 mM EDTA, 0.1% NP-40, 20% glycerol, 1 mM DTT, 4M urea).
The microtiter plates were incubated at 30° C. for 1 hour. The reaction solution was removed and each well was washed twice with PBS. Subsequently, each well of the microtiter plates was filled with 100 μl of anti-digoxigenin antibody labeled with alkaline phosphatase (Sheep Fab fragment: obtained from Boehringer) and incubated at 30° C. for 1 hour. Then, each well was washed twice with 0.05% Tween20 in PBS and once with PBS. Next, 150 μl of the Alkaline phosphatase reaction buffer (composition: 10 mM p-Nitrophenylphosphate (obtained from Vector Laboratories), 5 mM MgCl2, 100 mM NaCl, 100 mM Tris-HCl (pH 9.5)) was added in each well. The microtiter plates were incubated at 30° C. for 2 hours and the reaction was terminated by the addition of 50 μl of 1 N NaOH solution. The optical density (OD) at 405 nm of each well was measured and the percent inhibition was determined by the following expression. The percent inhibition (%)=100[1−{(C abs.−NC abs.)/(PC abs.−NC abs.)}] • C abs.; the OD of the well of the compounds • NC abs. the OD of the negative control (NC) • PC abs.: the OD of the positive control (PC)
The following Compounds (X-1 to 3) were used in order to compare an activity of the present compound with that of the compounds (X-1 to 3). Compound No. in the Table 1 is the same as compound No. of the above example.

| SMILES | IC50 [µg/mL] |
| --- | --- |
| O=C(O)C(=O)c1c(F)ccc(COc2ccc(C=C(O)C(=O)O)nc2)c1F [Compound I-17, 3-[5-(3-Carboxyoxalyl-2,4-difluorobenzyloxy)-pyridin-2-yl]-2-hydroxy acrylic acid] | 3.4 |

same assay, conditions: HIV-1 integrase; concentration of the compound at percent inhibition 50%; OD 405 nm; read-out: IC50 (μg/ml) (converted)

| SMILES | IC50 [nM] |
| --- | --- |
| O=C(O)/C(O)=C/c1ccc(OCc2ccc(C(F)(F)F)cc2)cn1 [Compound I-49, 3-[5-(4-Trifluoromethylbenzyloxy)pyridin-2-yl]-2-hydroxy acrylic acid] | 16500 |
| CCOC(=O)C(O)=Cc1ccc(OCc2ccccc2)cn1 [Compound I-2, 3-(5-Benzyloxypyridin-2-yl)-2-hydroxy acrylic acid ethyl ester] | 1770 |
| CC(C)CCOc1ccc(/C=C(\O)C(=O)O)nc1 [Compound I-9, 3-(5-Isopentoxypyridin-2-yl)-2-hydroxy acrylic acid] | 11500 |
| OC(=Cc1ccc(OCc2ccccc2)cn1)c1nccs1 [Compound I-15, 2-(5-Benzyloxypyridin-2-yl)-1-thiazol-2-yl ethenol] | 10200 |
| O=C(O)/C(O)=C/c1ccc(OCc2ccccc2)cc1 [Compound X-3, reference compound] | > 370000 |
| O=C(O)/C(O)=C/c1ccc2ccccc2c1 [Compound X-2, reference compound] | > 467000 |
| CCOC(=O)C(O)=Cc1cc(CCc2ccccc2)ncn1 [Compound I-24, 3-[6-(2-Phenylethyl)pyrimidin-4-yl)-2-hydroxy acrylic acid ethyl ester] | 1010 |
| O=C(O)C(O)=Cc1cc(CCc2ccccc2)ncn1 [Compound I-25, 3-[6-(2-Phenylethyl)pyrimidin-4-yl)-2-hydroxy acrylic acid] | 481 |
| O=C(O)/C(O)=C/c1nnc(CCc2ccccc2)s1 [Compound I-35, 3-[5-(2-Phenylethyl)[1,3,4]thiadiazol-2-yl)-2-hydroxy acrylic acid] | 1590 |
| O=C(O)C(O)=Cc1ccc(OCc2ccccc2)cn1 [Compound I-3, 3-(5-Benzyloxypyridin-2-yl)-2-hydroxy acrylic acid] | 1140 |
| OC(=Cc1ccc(OCc2ccccc2)cn1)c1nc[nH]n1 [Compound I-14, 2-(5-Benzyloxypyridin-2-yl)-1-(1H-[1,2,4]triazol-3-yl) ethenol] | 3230 |
| O=C(O)/C(O)=C/c1ccc(OCC2CCCCC2)cn1 [Compound I-7, 3-[5-(Cyclohexylmethoxy)pyridin-2-yl]-2-hydroxy acrylic acid] | 4690 |
| COc1cc(/C=C(\O)C(=O)O)ccc1OCc1ccccc1 [Compound X-1, reference compound] | > 333000 |
| O=C(O)/C(O)=C/c1cnc(CCc2ccccc2)cn1 [Compound I-27, 3-[5-(2-Phenylethyl)pyradin-2-yl]-2-hydroxy acrylic acid] | 2520 |
| CCOC(=O)C(O)=Cc1ccc(OCc2ccc(F)cc2F)cn1 [Compound I-46, 3-[5-(2,4-Difluorobenzyloxy)pyridin-2-yl]-2-hydroxy acrylic acid ethyl ester] | 1640 |
| O=C(O)C(O)=Cc1ccc(OCc2ccc(F)cc2F)cn1 [Compound I-47, 3-[5-(2,4-Difluorobenzyloxy)pyridin-2-yl]-2-hydroxy acrylic acid] | 1630 |

same assay, conditions: besides the compounds of the IC50 table

| SMILES | inhibitory effect for HIV-1 integrase, stated in words (compound having high activity) |
| --- | --- |
| O/C(=C\c1cc(CCc2ccccc2)ncn1)c1ncccn1 [Compound I-110] | high activity |
| Cc1cc(/C(O)=C/c2cc(CCc3ccccc3)ncn2)no1 [Compound I-103] | high activity |
| O=C(O)/C(O)=C/c1cc(C(F)Cc2ccccc2)ncn1 (stereo not shown) [Compound I-115] | high activity |
| O/C(=C\c1cc(CCc2ccc(F)cc2)ncn1)c1ncccn1 [Compound I-109] | high activity |
| O=C(O)c1ccc(/C(O)=C/c2cc(CCc3ccccc3)ncn2)nc1 [Compound I-114] | high activity |
| O/C(=C\c1cc(CCc2ccccc2)ncn1)c1ccccn1 [Compound I-111] | high activity |
| O=C(O)/C(O)=C/c1ncc(CCc2ccccc2)o1 [Compound I-117] | high activity |
| O=C(O)/C(O)=C/c1ncc(CCc2ccccc2)s1 [Compound I-119] | high activity |
